{
  "source": "patent US12447171B2",
  "about": "(CELGENE QUANTICEL RESEARCH, INC., priority 2019, dated 2025)",
  "key": {"MV4-11 cells": {"system": "MV4-11 cells", "assay": "RNASeq analysis of MV4-11 cells", "type": "cell-based", "conditions": "MV4-11, 1 μM 5-azacytidine", "experimental": "(§1) After treatment, cells were recovered, washed once in PBS, and flash frozen as cell pellets. Cell pellets were sent to Canopy Biosciences for RNA extraction and library preparation and sequencing. RNA was extracted using the Qiagen RNeasy Mini Kit according to manufacturer's instructions. A modified protocol was used to preserve miRNA species. Total RNA Seq libraries were prepared using 200 ng of total RNA and the NEBNext Ultra II Directional Library prep kit. rRNA depletion was performed using an RNase-H based method (New England Biolabs, Ipswich, MA). MCL1 RNA levels in other cell lines were quantified by RNASeq using standard methods.\n(§2) Libraries were multiplexed and sequenced using Illumina HiSeq. All gene counts were then imported into the R/Bioconductor package EdgeR and TMM normalization size factors were calculated to adjust for samples for differences in library size. Ribosomal genes and genes not expressed in the smallest group size minus one samples greater than one count-per-million were excluded from further analysis. Differential expression analysis was then performed to analyze for differences between conditions and the results were filtered for only those genes with Benjamini-Hochberg false-discovery rate adjusted p-values less than or equal to 0.05. Global perturbations in known Gene Ontology (GO) terms and KEGG pathways were detected using the R/Bioconductor package GAGE to test for changes in expression of the reported log 2 fold-changes reported by Limma in each term versus the background log 2 fold-changes of all genes found outside the respective term. The R/Bioconductor package heatmap and Pathview was used to display heatmaps or annotated KEGG graphs across groups of samples for each GO term or KEGG pathway (respectively) with a Benjamini-Hochberg false-discovery rate adjusted p-value less than or equal to 0.05. To find differentially expressed genes, the raw counts were variance stabilized with the R/Bioconductor package DESeq2."}, "MV4-11 xenograft models": {"system": "MV4-11 xenograft models", "assay": "Disseminated MV4-11 xenograft survival study", "type": "in vivo", "conditions": "MV4-11, NCG mice, vehicle=29.5", "experimental": "LEED models oral administration of AZA, while HELD models intravenous or subcutaneous administration of AZA.\nOn each day of dosing, an appropriate amount of gilteritinib was dissolved in 0.5% methylcellulose in DI water to yield a dosing solution at 0.4 mg/mL. Each week, an appropriate amount of venetoclax was dissolved in 10% ethanol:30% PEG400:60% phosal 50 propylene glycol to yield a dosing solution at 10 mg/mL. […] Each test mouse received 5×10^6 MOLM-13 cells or 10^7 MV4-11 cells (0.2 mL cell suspension) by tail vein injection. Dosing was initiated three days after tumor cell inoculation, which was designated as Day 1 of the study. […] […] Vehicle was administered both IP and PO. The dosing volume for all treatments was 10 mL/kg, scaled to the weight of each individual animal.\nAnimals were monitored individually for an endpoint of moribundity due to progression of the leukemia. Full hind limb paralysis, severe ocular proptosis, or moribundity was considered sufficient for euthanasia due to tumor progression. Moribund animals were defined as sick animals unable to reach food and water. These deaths were classified as death on survival study. The time to endpoint (TTE), in days, was recorded for each mouse that died of its disease or was euthanized due to extensive tumor progression. […] An animal classified as having died from treatment-related (TR) causes was assigned a TTE value equal to the day of death. An animal classified as having died from non-treatment-related (NTR) causes, or used for sampling before endpoint, was excluded from TTE calculations and all further analyses. The median TTE value was calculated for each group. The median TTE of treated mice was expressed as a percentage of the median TTE of the control mice (% T/C), and the increase in life span (ILS) was calculated as: ILS=% T/C−100%, where T=median TTE treated, and C=median TTE control. Thus, if T=C, ILS=0%.\nAnimals were weighed daily on Days 1-5, then twice per week until the completion of the study. […] Individual body weight loss was monitored as per protocol and any animal that exceeded the limits for acceptable body weight loss was euthanized. Group mean body weight loss also was monitored as per protocol. Dosing was suspended in any group that exceeded the limits for acceptable mean body weight loss. If mean body weight recovered, then dosing may be resumed in that group, but at a lower dosage or less frequent dosing schedule. […] Survival was analyzed by the Kaplan-Meier method, based on TTE values. The logrank (Mantel-Cox) and Gehan-Breslow-Wilcoxon tests determined the significance of the difference between the overall survival experiences (survival curves) of two groups, based on TTE values."}, "BaF-FLT3(D835Y)": {"system": "BaF-FLT3(D835Y)", "assay": "Cell viability assay (Cell Titer-Glo), BaF3 cells expressing FLT3", "type": "cell-based", "conditions": "Mus musculus"}, "[1]": {"system": "stearoyl-CoA desaturase (SCD)", "assay": "SCD expression (RNAseq, real-time PCR) in MV4-11 cells", "type": "cell-based", "experimental": "as §1\nas §2, with “The R/Bioconductor package heatmap and Pathview was used to display heatmaps or annotated KEGG graphs across groups of samples for each GO term or KEGG pathway (respectively) with a Benjamini-Hochberg false-discovery rate adjusted p-value less than or equal to 0.05. To find differentially expressed genes, the raw counts were variance stabilized with the R/Bioconductor package DESeq2.” left out\nAt this time, cells were recovered and RNA was extracted using Qiagen RNeasy kit according to manufacturer's instructions. […] Validated Taqman probes and Taqman Fast Advanced Master Mix was used with Viia 7 Real-Time PCR System (Invitrogen/ThermoFisher Scientific, Waltham, MA) to quantify transcripts of ATF3, SCD, and 18S mRNA."}},
  "data": [
    {"smiles": "Nc1ncn([C@@H]2O[C@H](CO)[C@@H](O)[C@H]2O)c(=O)n1", "note": "[5-azacytidine, 4-amino-1-B-D-ribofuranosyl-1,3,5-triazin-2(1H)-one]", "values": [
      {"measurement": "Mean logFC, Kegg pathway Antigen processing and presentation", "setting": "MV4-11 cells; 24 h", "value": "−3.39"},
      {"measurement": "Mean logFC, Kegg pathway Biosynthesis of unsaturated fatty acids", "setting": "MV4-11 cells; 24 h", "value": "−3.26"},
      {"measurement": "Mean logFC, Kegg pathway Carbon metabolism", "setting": "MV4-11 cells; 24 h", "value": "−3.35"},
      {"measurement": "Mean logFC, Kegg pathway Cardiac muscle contraction", "setting": "MV4-11 cells; 24 h", "value": "−2.61"},
      {"measurement": "Mean logFC, Kegg pathway Cell cycle", "setting": "MV4-11 cells; 24 h", "value": "−5.75"},
      {"measurement": "Mean logFC, Kegg pathway Cellular senescence", "setting": "MV4-11 cells; 24 h", "value": "−2.69"},
      {"measurement": "Mean logFC, Kegg pathway DNA replication", "setting": "MV4-11 cells; 24 h", "value": "−4.45"},
      {"measurement": "Mean logFC, Kegg pathway Fatty acid elongation", "setting": "MV4-11 cells; 24 h", "value": "−2.87"},
      {"measurement": "Mean logFC, Kegg pathway Fatty acid metabolism", "setting": "MV4-11 cells; 24 h", "value": "−3.43"},
      {"measurement": "Mean logFC, Kegg pathway Lysasome", "setting": "MV4-11 cells; 24 h", "value": "−2.82"},
      {"measurement": "Mean logFC, Kegg pathway Metabolic pathways", "setting": "MV4-11 cells; 24 h", "value": "−5.79"},
      {"measurement": "Mean logFC, Kegg pathway Mismatch repair", "setting": "MV4-11 cells; 24 h", "value": "−2.98"},
      {"measurement": "Mean logFC, Kegg pathway Necroptosis", "setting": "MV4-11 cells; 24 h", "value": "−3.78"},
      {"measurement": "Mean logFC, Kegg pathway Oxidative phosphorylation", "setting": "MV4-11 cells; 24 h", "value": "−7.32"},
      {"measurement": "Mean logFC, Kegg pathway Phagosome", "setting": "MV4-11 cells; 24 h", "value": "−4.13"},
      {"measurement": "Mean logFC, Kegg pathway Proteasome", "setting": "MV4-11 cells; 24 h", "value": "−4.41"},
      {"measurement": "Mean logFC, Kegg pathway Protein export", "setting": "MV4-11 cells; 24 h", "value": "−3.19"},
      {"measurement": "Mean logFC, Kegg pathway Protein processing in endoplasmic reticulation", "setting": "MV4-11 cells; 24 h", "value": "−4.96"},
      {"measurement": "Mean logFC, Kegg pathway RNA transport", "setting": "MV4-11 cells; 24 h", "value": "−3.08"},
      {"measurement": "Mean logFC, Kegg pathway Regulation of actin cytoskeleton", "setting": "MV4-11 cells; 24 h", "value": "−2.46"},
      {"measurement": "Mean logFC, Kegg pathway Ribosome", "setting": "MV4-11 cells; 24 h", "value": "−10.50"},
      {"measurement": "Mean logFC, Kegg pathway Spliceasome", "setting": "MV4-11 cells; 24 h", "value": "−4.10"},
      {"measurement": "Mean logFC, Kegg pathway Taste transduction", "setting": "MV4-11 cells; 24 h", "value": "−2.44"},
      {"measurement": "Mean logFC, Kegg pathway Terpenoid backbone biosynthesis", "setting": "MV4-11 cells; 24 h", "value": "−2.48"},
      {"measurement": "Mean logFC, Kegg pathway p53 signaling pathway", "setting": "MV4-11 cells; 24 h", "value": "−2.42"},
      {"measurement": "differentially expressed genes", "setting": "MV4-11 cells; 24 hours", "value": 133},
      {"measurement": "KEGG pathways regulated", "setting": "MV4-11 cells; 48 hours", "value": "No significant differences"},
      {"measurement": "differentially expressed genes", "setting": "MV4-11 cells; 48 hours", "value": 226},
      {"measurement": "Median survival", "setting": "MV4-11 xenograft models; HELD 5-azacytidine 3 mg/kg qd×5, alone or with venetoclax or midostaurin 100 mg/kg qd×21", "value": 35},
      {"measurement": "Median survival", "setting": "MV4-11 xenograft models; LEED 5-azacytidine 1 mg/kg qd×5×3, alone or with venetoclax or midostaurin 100 mg/kg qd×21", "value": 35},
      {"measurement": "EC50", "setting": "BaF-FLT3(D835Y)", "value": 456, "unit": "nM"},
      {"measurement": "SCD expression (real-time PCR)", "setting": "[1]; MV4-11, 3 μM 5-azacytidine", "value": "decreased rapidly within 24 hours"},
      {"measurement": "SCD expression (real-time PCR)", "setting": "[1]; MV4-11, low concentrations of 5-azacytidine, 24 hours", "value": "not affected"},
      {"measurement": "SCD expression decrease", "setting": "[1]; RNAseq, MV4-11, 1 μM, 48 hours", "value": 2.5, "unit": "fold"}
    ]}
  ]
}
